According to patent US20250049831A1, “ANTIVIRAL USE OF BISE[…], AND BISEPOXYLIGNAN COMPOSITION AND PREPARATION OF BISE[…]” (priority 2021, published 2025):
Where two headings read alike, the source gives them in different places.

Legend:
parainfluenza virus [1] = experiment: Effect of drug on virus-induced CPE (MTT, antiviral effective rate), parainfluenza virus in Vero cells; assay type: cell-based
influenza virus [2] = experiment: Effect of drug on virus-induced CPE (MTT, antiviral effective rate), influenza virus in Vero cells; assay type: cell-based
COVID-19 virus = experiment: In-vitro antiviral CPE test in Vero E6 cells, COVID-19 virus; assay type: cell-based; settings: Vero E6 cells, 100 TCID50, CPE after 3-4 days; unit not given (drug concentrations 250-15.62 μg/mL); in µg/mL
Vero cells = experiment: Drug cytotoxicity assay (MTT) on Vero cells; assay type: cell-based, African green monkey; settings: 72 h, Probit regression
Text: Vero cells were subcultured for 1-2 d to make them into flakes, and trypsinized in the presence of clear boundaries, strong three-dimensional sense and strong refractive power, until needle-like holes appeared on the cell surfaces; after the trypsinization solution was absorbed completely, a few milliliters of culture medium were taken to blow away the cells; the cells were counted, diluted to about 5×10^7/L with a culture medium (DMEM containing 10% fetal bovine serum), and then inoculated in a 96-well culture plate; and the cells grew into a monolayer.
Cytotoxicity test: the drugs were diluted at the concentrations shown in Table 3-1 for cytotoxicity assay.

IL-1β = experiment: RT-qPCR of IL-1β in lung homogenate of mice infected with COVID-19 Delta virus; settings: mRNA RT-qPCR, NC = 1.00
COVID-19 Delta virus [3] = experiment: Prophylactic administration, virus titer in lung tissues of mice infected with COVID-19 Delta virus; settings: prophylactic gavage 5 days before infection, Day 5 after infection, TCID50 on VERO E6 cells
MCP-1 = experiment: RT-qPCR of MCP-1 in lung homogenate of mice infected with COVID-19 Delta virus; settings: mRNA RT-qPCR, NC = 1.00
COVID-19 Delta virus [4] = experiment: Prophylactic administration, death protection of mice infected with COVID-19 Delta virus; settings: for Death rate / Survival rate / Mean survival: within 5 days of Delta infection, n = 8; for Mean survival: x ± s
Experimental: hACE2 transgenic C57BL/6 mice were divided (8 mice in each group) into a normal group (NC), a virus infection group (Virus), and drug groups (a COVID-19 Delta virus low-dose (40 mg/kg) group, high-dose (80 mg/kg) group; and a positive control group (Remdesivir 50 mg/kg). Before nasal dripping infection, the drug was administered by gavage 5 days in advance, once a day. After 5 days of continuous gavage, nasal dripping infection was performed, and mice in each COVID-19 virus infection group were infected with COVID-19 Delta virus with 10′ PFU by nasal dripping, except for the normal group who were given PBS by nasal dripping.
After infection, the body weight change was recorded every day, the death of animals within 5 days of infection was recorded, and the mean survival days and mortality rate of 5 days were calculated.

IL-2 = experiment: Serum IL-2 in mice infected with influenza virus; assay type: in vivo, ICR mice; settings: Day 5 after influenza virus infection, gavage once a day, x ± s
Experimental: (§1) On the Day 5 after influenza virus infection, that is, Day 6 after administration, after the mice were fasted with solids for 8 h and weighed, venous blood was collected from the plexus ophthalmicus, and blood from mice in each group was preserved, subjected to serum separation, and stored in a refrigerator for later use. According to the instructions of a test kit, various detection and analysis were carried out, and IL-2 and TNF-α concentrations were calculated based on the standard detection and standard curve plotting.

parainfluenza virus [5] = experiment: Action links (Groups I-IV: prevention, treatment, direct inactivation), protection of cells against parainfluenza virus; assay type: cell-based; settings: for Protection rate (ER %), Group IV: drug and virus mixed and adsorbed for 2 h, then added with cells (direct inactivation); for Protection rate (ER %), Group III: drug solution and virus solution added at the same time (direct inactivation); for Protection rate (ER %), Group II: virus added first, drug added 1 h after adsorption (treatment); for Protection rate (ER %), Group I: virus solution added after 24 h of drug administration (prevention)
influenza virus FM1 = experiment: Action links (Groups I-IV: prevention, treatment, direct inactivation), protection of cells against influenza virus; assay type: cell-based; settings: for Protection rate (ER %), Group IV: drug and virus mixed and adsorbed for 2 h, then added with cells (direct inactivation); for Protection rate (ER %), Group III: drug solution and virus solution added at the same time (direct inactivation); for Protection rate (ER %), Group II: virus added first, drug added 1 h after adsorption (treatment); for Protection rate (ER %), Group I: virus solution added after 24 h of drug administration (prevention)
TNF-α = experiment: Serum TNF-α in mice infected with influenza virus; assay type: in vivo, ICR mice; settings: Day 5 after influenza virus infection, gavage once a day, x ± s
Experimental: as §1

influenza virus [6] = assay type: in vivo, Kunming mice; settings: for Hemagglutination titer inhibition rate (%): Day 5; for Hemagglutination titer: lung suspension
parainfluenza virus [7] = assay type: in vivo, Kunming mice; settings: for Hemagglutination titer inhibition rate (%): Day 5; for Hemagglutination titer: lung suspension, Day 5, […]
[8] = high-dose group 80 mg/kg gavage 5 days
[9] = low-dose group 40 mg/kg gavage 5 days
[10] = prophylactic administration, High dose
[11] = prophylactic administration, Low dose

Compound | Effective rate, ER %, Parainfluenza Virus (parainfluenza virus [1]) [%] | Effective rate, ER %, Influenza Virus (influenza virus [2]) [%] | COVID-19 virus IC50 (COVID-19 virus) | Maximum non-toxic concentration (TC0) (Vero cells) [g/L] | Median toxic concentration (TC50) (Vero cells) [µg/mL] | Expression level of IL-1β in lung homogenate (x ± s) (IL-1β; [8]) | Expression level of IL-1β in lung homogenate (x ± s) (IL-1β; [9]) | IL-2 expression level (IL-2; High-dose group (26.0 mg/kg)) | IL-2 expression level (IL-2; Low-dose group (13.0 mg/kg)) | Protection rate (ER %), Group IV (parainfluenza virus [5]) [%] | Protection rate (ER %), Group III (parainfluenza virus [5]) [%] | Protection rate (ER %), Group II (parainfluenza virus [5]) [%] | Protection rate (ER %), Group I (parainfluenza virus [5]) [%] | Protection rate (ER %), Group IV (influenza virus FM1) [%] | Protection rate (ER %), Group III (influenza virus FM1) [%] | Protection rate (ER %), Group II (influenza virus FM1) [%] | Protection rate (ER %), Group I (influenza virus FM1) [%] | TNF-a expression level (TNF-α; High-dose group (26.0 mg/kg)) | TNF-a expression level (TNF-α; Low-dose group (13.0 mg/kg)) | Lung virus titer (x ± s, n = 8) (COVID-19 Delta virus [3]; high dose 80 mg/kg) | also measured
COc1ccc(C2OCC3C(c4ccc(OC(=O)C(C)c5ccc(CC(C)C)cc5)c(OC)c4)OCC23)cc1OC (stereo not shown) [compound 6] | 93.96 | 84.51 | 161.8 | 0.012 | 310 |  |  |  |  |  |  |  |  |  |  |  |  |  |  |  | 
CCC(CC)COC(=O)[C@H](C)N[P@](=O)(OC[C@H]1O[C@@](C#N)(c2ccc3c(N)ncnn23)[C@H](O)[C@@H]1O)Oc1ccccc1 [Remdesivir, reference compound] |  |  |  |  |  |  |  |  |  |  |  |  |  |  |  |  |  |  |  |  | Expression level of IL-1β in lung homogenate (x ± s) (IL-1β; 50 mg/kg, 5 days): 9.52 ± 6.37; Lung virus titer (x ± s, n = 8) (COVID-19 Delta virus [3]; 50 mg/kg): 3.69 ± 1.06; Expression level of MCP-1 in lung homogenate (x ± s) (MCP-1; 50 mg/kg, 5 days): 6.88 ± 5.73; Death rate (COVID-19 Delta virus [4]; 50 mg/kg): 75.00%; Survival rate (COVID-19 Delta virus [4]; 50 mg/kg): 25.00%; Mean survival (COVID-19 Delta virus [4]; 50 mg/kg): 3.88 ± 0.83 days; Death protection rate (COVID-19 Delta virus [4]; prophylactic administration, 50 mg/kg, within 5 days of infection): 75%
COc1ccc([C@H]2OC[C@H]3[C@@H]2CO[C@H]3c2ccc(O[C@@H]3O[C@H](CO)[C@@H](O)[C@H](O)[C@H]3O)c(OC)c2)cc1OC [Serial No. 2, phillyrin] |  |  |  |  |  | 5.11 ± 14.34 | 10.58 ± 10.22 | 262.88 ± 35.66 | 293.00 ± 21.88 | 100.93 | 100.67 | 85.94 | 84.48 | 100.86 | 100.68 | 75.58 | 75.86 | 618.38 ± 28.86 | 683.47 ± 37.37 | 2.95 ± 0.57 | Lung virus titer (x ± s, n = 8) (COVID-19 Delta virus [3]; low dose 40 mg/kg): 3.70 ± 0.25; Hemagglutination titer inhibition rate (%) (influenza virus [6]; 13.0 mg/kg): 43.30%; Hemagglutination titer (influenza virus [6]; 13.0 mg/kg, Day 5, […]): 20.11 ± 0.351; Expression level of MCP-1 in lung homogenate (x ± s) (MCP-1; [8]): 3.66 ± 11.30; Expression level of MCP-1 in lung homogenate (x ± s) (MCP-1; [9]): 7.42 ± 12.66; Hemagglutination titer inhibition rate (%) (parainfluenza virus [7]; 13.0 mg/kg): 37.52%; Hemagglutination titer (parainfluenza virus [7]; 13.0 mg/kg): 21.63 ± 0.330; Death rate (COVID-19 Delta virus [4]; [10]): 12.50%; Survival rate (COVID-19 Delta virus [4]; [10]): 87.50%; Mean survival (COVID-19 Delta virus [4]; [10]): 4.88 ± 0.35 days; Death rate (COVID-19 Delta virus [4]; [11]): 75.00%; Survival rate (COVID-19 Delta virus [4]; [11]): 25.00%; Mean survival (COVID-19 Delta virus [4]; [11]): 3.88 ± 0.83 days
COc1ccc([C@H]2OC[C@H]3[C@@H]2CO[C@H]3c2ccc(O[C@@H]3O[C@H](CO)[C@@H](O)[C@H](O)[C@H]3O)c(OC)c2)cc1OC [compound 2] | 94.43 | 85.94 | 63.3 | 0.0067 | 560 |  |  |  |  |  |  |  |  |  |  |  |  |  |  |  | 
CCOC(=O)C1=C[C@@H](OC(CC)CC)[C@H](NC(C)=O)[C@@H](N)C1 [Oseltamivir phosphate, reference compound] | 91.16 |  |  | 0.29 | 831 |  |  |  |  |  |  |  |  |  |  |  |  |  |  |  | IL-2 expression level (IL-2; 19.5 mg/kg): 279.83 ± 23.26; Effective rate, ER %, Influenza Virus (influenza virus [2]; Vero cells, 100TCID50, drug at experimental concentration of Table 3-2 (about maximum non-toxic), 72 h, MTT): 81.92%; TNF-a expression level (TNF-α; 19.5 mg/kg): 658.91 ± 38.33; Hemagglutination titer inhibition rate (%) (influenza virus [6]; 19.5 mg/kg): 37.78%; Hemagglutination titer (influenza virus [6]; 19.5 mg/kg, Day 5, titer (InX)): 22.07 ± 0.235; Hemagglutination titer inhibition rate (%) (parainfluenza virus [7]; 19.5 mg/kg): 32.93%; Hemagglutination titer (parainfluenza virus [7]; 19.5 mg/kg): 23.22 ± 0.648
COc1cc(O)cc(C2OCC3C(c4ccc(OC5OC(CO)C(O)C(O)C5O)c(OC)c4)OCC23)c1 [Serial No. 1, (7,8,7′,8′)-7,7′-bisepoxy-5′-hydroxy-3,3′hydroxy-bismethoxylignan, 4-O-β-D-glucoside] |  |  |  |  |  | 4.80 ± 18.82 | 9.13 ± 8.66 | 259.04 ± 39.98 | 288.64 ± 25.05 | 100.82 | 100.49 | 85.95 | 84.39 | 100.76 | 100.52 | 75.77 | 75.49 | 608.95 ± 34.92 | 673.65 ± 26.44 | 2.93 ± 0.34 | Lung virus titer (x ± s, n = 8) (COVID-19 Delta virus [3]; low dose 40 mg/kg): 3.36 ± 0.28; Hemagglutination titer inhibition rate (%) (influenza virus [6]; 13.0 mg/kg): 43.39%; Hemagglutination titer (influenza virus [6]; 13.0 mg/kg, Day 5, titer (InX)): 20.08 ± 0.381; Expression level of MCP-1 in lung homogenate (x ± s) (MCP-1; [8]): 3.26 ± 9.77; Expression level of MCP-1 in lung homogenate (x ± s) (MCP-1; [9]): 6.13 ± 15.12; Hemagglutination titer inhibition rate (%) (parainfluenza virus [7]; 13.0 mg/kg): 37.46%; Hemagglutination titer (parainfluenza virus [7]; 13.0 mg/kg): 21.65 ± 0.238; Death rate (COVID-19 Delta virus [4]; [10]): 12.50%; Survival rate (COVID-19 Delta virus [4]; [10]): 87.50%; Mean survival (COVID-19 Delta virus [4]; [10]): 4.88 ± 0.35 days; Death rate (COVID-19 Delta virus [4]; [11]): 75.00%; Survival rate (COVID-19 Delta virus [4]; [11]): 25.00%; Mean survival (COVID-19 Delta virus [4]; [11]): 4.25 ± 0.46 days
COc1cc(O)cc(C2OCC3C(c4ccc(OC5OC(CO)C(O)C(O)C5O)c(OC)c4)OCC23)c1 (stereo not shown) [compound 1] | 99.92 | 89.02 | 62.1 | 0.0067 | 560 |  |  |  |  |  |  |  |  |  |  |  |  |  |  |  | 
COc1ccc(C2OCC3C(c4ccc(OC)c(OC)c4)OCC23)cc1O (stereo not shown) [compound 3] | 91.41 | 83.10 | 166.5 | 0.012 | 310 |  |  |  |  |  |  |  |  |  |  |  |  |  |  |  | 
COc1cc([C@H]2OC[C@H]3[C@@H]2CO[C@H]3c2ccc(OC)c(OC)c2)ccc1O [Serial No. 3, phillygenin] |  |  |  |  |  | 4.93 ± 16.18 | 9.98 ± 11.16 | 275.59 ± 31.88 | 306.70 ± 34.88 | 100.18 | 100.46 | 85.11 | 84.15 | 100.38 | 100.86 | 75.51 | 75.46 | 648.40 ± 27.19 | 713.48 ± 39.74 | 2.98 ± 0.73 | Lung virus titer (x ± s, n = 8) (COVID-19 Delta virus [3]; low dose 40 mg/kg): 3.47 ± 0.98; Hemagglutination titer inhibition rate (%) (influenza virus [6]; 13.0 mg/kg): 42.20%; Hemagglutination titer (influenza virus [6]; 13.0 mg/kg, Day 5, […]): 20.50 ± 0.489; Expression level of MCP-1 in lung homogenate (x ± s) (MCP-1; [8]): 3.67 ± 10.22; Expression level of MCP-1 in lung homogenate (x ± s) (MCP-1; [9]): 6.71 ± 4.38; Hemagglutination titer inhibition rate (%) (parainfluenza virus [7]; 13.0 mg/kg): 36.28%; Hemagglutination titer (parainfluenza virus [7]; 13.0 mg/kg): 22.06 ± 0.310; Death rate (COVID-19 Delta virus [4]; [10]): 12.50%; Survival rate (COVID-19 Delta virus [4]; [10]): 87.50%; Mean survival (COVID-19 Delta virus [4]; [10]): 4.88 ± 0.35 days; Death rate (COVID-19 Delta virus [4]; [11]): 75.00%; Survival rate (COVID-19 Delta virus [4]; [11]): 25.00%; Mean survival (COVID-19 Delta virus [4]; [11]): 4.13 ± 0.64 days
